Data from patent US20260117174A1, “PRODUCTION METHOD OF THREE-DIMENSIONAL CELL CULTURE, CULTURE METHOD OF THREE-DIMENSIONAL CELL CULTURE, THREE-DIMENSIONAL CELL CULTURE, AND EVALUATION METHOD OF TEST SUBSTANCE” (FUJIFILM Corporation, priority 2023, published 2026).

Tested on: three-dimensional co-culture of astrocytes, neurons and microglia
Assay: Intercellular interactions during neuroinflammation: NF-κB p65 immunostaining of the three-dimensional co-culture after LPS treatment
Assay type: cell-based, human
Settings: 100 ng/ml final concentration; fixed 0, 0.5, 1, 3, 6 and 24 hours after treatment; co-culture cultured for 3 weeks
Protocol: • The three-dimensional co-culture that had been cultured for 3 weeks was treated with Lipopolysaccharide (LPS) from E. coli 0127 (FUJIFILM Wako Pure Chemical Corporation, 124-05151) such that the final concentration was 100 ng/ml, and fixed by treating, for 30 minutes, with a 4% paraformaldehyde-phosphate buffer solution (FUJIFILM Wako Pure Chemical Corporation, 161-20141) at 0, 0.5, 1, 3, 6, and 24 hours after the treatment. After washing with PBS(-), the co-culture was treated with Triton (registered trademark) X-100 solution (BioVision, 2104-100) diluted to 0.4% with PBS(-) for 15 minutes to perform permeation treatment. After the permeation treatment, the co-culture was treated with a BSA solution (Sigma-Aldrich, A416) adjusted at a concentration of 4% with PBS(-) for 30 minutes to perform blocking. […] After washing with PBS(-), imaging was performed with a confocal quantitative image cytometer CQ1 (Yokogawa Electric Corporation, Cell Voyager (registered trademark) CQ1) to acquire images.

## Lipopolysaccharide [LPS]
  nuclear localization of NF-κB after the LPS treatment: change in nuclear localization of NF-κB
